Measured values: the supplement of paper PMC13380429

How the values were obtained:
Details in all cases: 72 h
Calu-3 [1] = assay: relative viability EC50 (midpoint between 100% and the lowest measured viability); higher = less toxic
Vero E6 [2] = assay: as above
U2OS [3] = assay: as above
HepG2 [4] = assay: as above
Caco-2 [5] = assay: as above
Calu-3 [6] = assay: drug sensitivity score (DSS) for viability; higher = more toxic; extreme values may be limits of the assay
Vero E6 [7] = assay: as above
U2OS [8] = assay: as above
HepG2 [9] = assay: as above
Caco-2 [10] = assay: as above
Calu-3 [11] = assay: cell viability relative to DMSO; higher = less toxic
Vero E6 [12] = assay: as above
U2OS [13] = assay: as above
HepG2 [14] = assay: as above
Caco-2 [15] = assay: as above

SMILES	relative viability EC50 (Calu-3 [1])	relative viability EC50 (Vero E6 [2])	relative viability EC50 (U2OS [3])	relative viability EC50 (HepG2 [4])	relative viability EC50 (Caco-2 [5])	drug sensitivity score (Calu-3 [6])	drug sensitivity score (Vero E6 [7])	drug sensitivity score (U2OS [8])	drug sensitivity score (HepG2 [9])	drug sensitivity score (Caco-2 [10])	cell viability (Calu-3 [11]; 1 nM)	cell viability (Calu-3 [11]; 10 nM)	cell viability (Calu-3 [11]; 100 nM)	cell viability (Calu-3 [11]; 1000 nM)	cell viability (Calu-3 [11]; 10000 nM)	cell viability (Vero E6 [12]; 1 nM)	cell viability (Vero E6 [12]; 10 nM)	cell viability (Vero E6 [12]; 100 nM)	cell viability (Vero E6 [12]; 1000 nM)	cell viability (Vero E6 [12]; 10000 nM)	cell viability (U2OS [13]; 1 nM)	cell viability (U2OS [13]; 10 nM)	cell viability (U2OS [13]; 100 nM)	cell viability (U2OS [13]; 1000 nM)	cell viability (U2OS [13]; 10000 nM)	cell viability (HepG2 [14]; 1 nM)	cell viability (HepG2 [14]; 10 nM)	cell viability (HepG2 [14]; 100 nM)	cell viability (HepG2 [14]; 1000 nM)	cell viability (HepG2 [14]; 10000 nM)	cell viability (Caco-2 [15]; 1 nM)	cell viability (Caco-2 [15]; 10 nM)	cell viability (Caco-2 [15]; 100 nM)	cell viability (Caco-2 [15]; 1000 nM)	cell viability (Caco-2 [15]; 10000 nM)
CC(C)C[C@H](NC(=O)[C@@H](O)[C@H](N)Cc1ccccc1)C(=O)O [ubenimex]	> 10 µM	> 10 µM	> 10 µM	> 10 µM	> 10 µM	0	0	0	0	0	103%	96%	104%	105%	104%	101%	98.8%	102%	98.7%	101%	97%	105%	103%	99.8%	98.5%	105%	93.4%	111%	102%	95.4%	98.2%	108%	95.9%	103%	103%
CS(=O)(=O)OCOS(C)(=O)=O [MDMS]	> 10 µM	> 10 µM	> 10 µM	> 10 µM	> 10 µM	0	0	0	0	0	102%	103%	95.9%	100%	97.7%	99.8%	98.4%	102%	98.7%	101%	100%	102%	99.6%	106%	104%	109%	97.1%	112%	112%	107%	104%	105%	98.1%	99.7%	101%
C[C@@H]1C[C@H]2[C@@H]3CCC4=CC(=O)C=C[C@]4(C)[C@@]3(F)[C@@H](O)C[C@]2(C)[C@H]1C(=O)CO [desoximetasone]	> 10 µM	> 10 µM	> 10 µM	> 10 µM	> 10 µM	0	0	0	0	0	86.2%	95%	101%	101%	88.8%	93%	91.3%	93.2%	88.5%	99%	98.3%	97.2%	91.9%	92.9%	101%	102%	95.7%	102%	91.3%	109%	94.1%	90.1%	88%	95.2%	105%
CCCCCCCCC(=O)NCc1cc(OC)c(O)cc1I [6-iodo-nordihydrocapsaicin]	> 10 µM	> 10 µM	> 10 µM	> 10 µM	> 10 µM	0	0	0	0	0.1	104%	98.6%	108%	109%	104%	88.5%	99.4%	92.2%	92.5%	104%	97.4%	98%	101%	96.6%	92.5%	96.6%	110%	95.6%	104%	103%	97.9%	101%	103%	97.7%	88.6%
C[N+]1([O-])[C@@H]2CC[C@H]1C[C@@H](OC(=O)C(CO)c1ccccc1)C2 (stereo not given in full) [atropine-oxide]	> 10 µM	> 10 µM	> 10 µM	> 10 µM	> 10 µM	0	0	0	0	0	97.6%	93.3%	98.6%	94.4%	102%	88.2%	103%	102%	111%	95.5%	97.4%	107%	101%	102%	96.5%	88%	99.2%	95.8%	98.6%	94.5%	84%	96.6%	99.3%	90.2%	93.9%
O[C@@H](CN1CCC(Cc2ccc(F)cc2)CC1)c1ccc(Cl)cc1 (racemic) [eliprodil]	> 10 µM	> 10 µM	> 10 µM	> 10 µM	> 10 µM	0	0	0	0	0	99.2%	95.2%	106%	92.3%	104%	98.8%	92%	98.8%	98.1%	105%	91.1%	93.3%	87.3%	87.9%	97.6%	96.6%	99.7%	97.8%	87.6%	108%	100%	96.2%	101%	103%	104%
C[C@]12CC[C@H]3[C@@H](CC[C@]4(O)C[C@@H](O)CC[C@]34C=O)[C@@]1(O)CC[C@@H]2C1=CC(=O)OC1 [K-strophanthidin]	2.28 µM	0.151 µM	1.43 µM	0.807 µM	0.975 µM	5.4	21.8	9.3	11.1	7.3	98.2%	102%	107%	92%	25.8%	99.5%	98.8%	72.6%	1.9%	0.9%	96.9%	98.7%	96.6%	72.4%	5.2%	96.4%	88.6%	102%	46.2%	14.8%	87.6%	110%	99.4%	68.5%	38.8%
